In ChEMBL document CHEMBL5728860, “[1,2,4]Triazolo[4,3-A]pyrazin-6(5H)-one derivatives” (2021) one finds IC50 data, which are given here for two compounds.

Each structure is given as a SMILES string.

Experiment [1] addresses Rod cGMP-specific 3',5'-cyclic phosphodiesterase alpha/beta (Homo sapiens, UniProt P16499+P35913). Nature of the experiment: PDE Enzyme Assays Using [3H]cGMP as Substrate: The following phosphodiesterase activities are measured using [3H]cGMP as reaction substrate: human PDE6A/6B. The catalytic active form of human PDE6 is a dimer composed of a α (human PDE6A) and β subunits (human PDE6B). The dimer of human PDE6A/6B is produced by the coexpression and purification strategy, using two purification steps, i.e., NiNTA and anti-FLAG Sepharose chromatography. The assay buffer is prepared to give a final concentration in the assay of 50 mM Tris-HCl, 8.3 mM MgCl2, 1.7 mM EDTA and 0.1% Bovine serum albumin at pH 7.5. The final enzyme concentration is 5 nM. The reactions are started by addition of the substrate, [3H]cGMP, to give a final concentration of 80 nM. It counts as protein-complex assay.

Experiment [2] concerns the target cGMP-inhibited 3',5'-cyclic phosphodiesterase 3A (Homo sapiens, UniProt Q14432). Nature of the experiment: PDE Enzyme Assays Using [3H]cAMP as Substrate: The following phosphodiesterase activities are measured using [3H]cAMP as reaction substrate: human PDE3A (catalytic domain) and human PDE4D. Both enzymes are cloned and purified following standard procedures. The assay buffer is prepared to give a final concentration in the assay of 50 mM Tris-HCl, 8.3 mM MgCl2, 1.7 mM ethylenediaminetetraacetic acid (EDTA) and 0.1% Bovine serum albumin at pH 7.5. Final enzyme concentrations are 0.008 and 0.021 nM for PDE3A and PDE4D, respectively. Reactions are started by addition of the substrate, [3H]cAMP, to give a final concentration of 47 nM.

Experiment [3] has as its target Dual specificity calcium/calmodulin-dependent 3',5'-cyclic nucleotide phosphodiesterase 1A (Homo sapiens, UniProt P54750). In words: Ca2+-Calmodulin Dependent PDE Enzyme Assays: PDE1B, PDE1A, and PDE1C are cloned and purified following standard protein generation procedures. The assay buffer is prepared to give a final concentration in the assay of 50 mM Tris-HCl, 50 mM MgCl2, 4 mM CaCl2, 0.1% Bovine serum albumin and 6 U/ml Calmodulin in water, at pH 7.5. The final enzyme concentration is 0.25, 0.074 and 0.0012 nM, for PDE1A, PDE1B and PDE1C respectively. The reactions are started by addition of the substrate, [3H]cAMP, to give a final concentration of 47 nM.

Rod cGMP-specific 3',5'-cyclic phosphodiesterase alpha/beta, sequence (P35913 whole entry): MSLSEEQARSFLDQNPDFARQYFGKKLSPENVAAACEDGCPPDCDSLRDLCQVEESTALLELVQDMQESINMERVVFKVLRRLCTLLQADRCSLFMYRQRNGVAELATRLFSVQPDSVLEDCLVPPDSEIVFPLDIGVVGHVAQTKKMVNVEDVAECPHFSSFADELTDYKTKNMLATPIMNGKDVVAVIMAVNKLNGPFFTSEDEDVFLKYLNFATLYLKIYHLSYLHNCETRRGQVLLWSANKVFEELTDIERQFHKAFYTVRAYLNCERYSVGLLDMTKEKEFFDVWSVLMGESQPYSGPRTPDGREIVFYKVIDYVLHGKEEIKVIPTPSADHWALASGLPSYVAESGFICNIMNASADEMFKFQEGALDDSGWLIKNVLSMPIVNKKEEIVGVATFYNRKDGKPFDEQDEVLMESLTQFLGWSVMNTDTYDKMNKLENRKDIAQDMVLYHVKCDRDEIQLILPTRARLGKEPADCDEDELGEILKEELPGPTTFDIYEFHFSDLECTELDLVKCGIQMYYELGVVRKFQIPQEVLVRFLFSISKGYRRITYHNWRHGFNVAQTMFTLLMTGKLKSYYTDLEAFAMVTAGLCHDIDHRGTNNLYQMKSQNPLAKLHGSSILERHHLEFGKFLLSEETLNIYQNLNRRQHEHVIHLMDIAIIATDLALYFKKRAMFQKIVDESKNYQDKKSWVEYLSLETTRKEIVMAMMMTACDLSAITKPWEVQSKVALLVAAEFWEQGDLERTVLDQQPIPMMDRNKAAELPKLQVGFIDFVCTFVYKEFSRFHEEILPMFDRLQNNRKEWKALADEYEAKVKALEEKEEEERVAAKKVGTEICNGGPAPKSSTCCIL
Rod cGMP-specific 3',5'-cyclic phosphodiesterase alpha/beta, sequence (P16499 whole entry): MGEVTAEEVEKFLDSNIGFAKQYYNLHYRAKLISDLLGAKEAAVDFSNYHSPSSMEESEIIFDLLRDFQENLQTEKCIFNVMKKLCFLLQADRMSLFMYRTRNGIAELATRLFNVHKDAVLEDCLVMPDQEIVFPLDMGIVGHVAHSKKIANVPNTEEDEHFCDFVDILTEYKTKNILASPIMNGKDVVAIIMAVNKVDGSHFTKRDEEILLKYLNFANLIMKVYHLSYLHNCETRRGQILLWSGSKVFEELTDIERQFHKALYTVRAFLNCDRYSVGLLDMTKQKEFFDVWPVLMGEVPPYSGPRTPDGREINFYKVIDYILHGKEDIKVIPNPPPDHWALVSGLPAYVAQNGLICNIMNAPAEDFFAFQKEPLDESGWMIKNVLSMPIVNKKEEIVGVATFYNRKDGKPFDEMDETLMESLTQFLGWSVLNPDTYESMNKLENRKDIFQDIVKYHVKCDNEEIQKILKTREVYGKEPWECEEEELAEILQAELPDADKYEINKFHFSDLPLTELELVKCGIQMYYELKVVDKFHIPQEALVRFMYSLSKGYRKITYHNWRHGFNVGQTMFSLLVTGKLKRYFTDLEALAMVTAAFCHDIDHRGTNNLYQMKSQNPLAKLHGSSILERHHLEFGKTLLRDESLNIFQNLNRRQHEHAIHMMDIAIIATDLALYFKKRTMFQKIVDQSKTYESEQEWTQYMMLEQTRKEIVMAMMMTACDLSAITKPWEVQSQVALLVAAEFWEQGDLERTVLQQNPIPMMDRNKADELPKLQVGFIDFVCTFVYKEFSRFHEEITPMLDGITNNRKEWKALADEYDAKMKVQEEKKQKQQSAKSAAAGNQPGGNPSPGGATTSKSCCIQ
cGMP-inhibited 3',5'-cyclic phosphodiesterase 3A, sequence (Q14432 whole entry, the tested form may be a part): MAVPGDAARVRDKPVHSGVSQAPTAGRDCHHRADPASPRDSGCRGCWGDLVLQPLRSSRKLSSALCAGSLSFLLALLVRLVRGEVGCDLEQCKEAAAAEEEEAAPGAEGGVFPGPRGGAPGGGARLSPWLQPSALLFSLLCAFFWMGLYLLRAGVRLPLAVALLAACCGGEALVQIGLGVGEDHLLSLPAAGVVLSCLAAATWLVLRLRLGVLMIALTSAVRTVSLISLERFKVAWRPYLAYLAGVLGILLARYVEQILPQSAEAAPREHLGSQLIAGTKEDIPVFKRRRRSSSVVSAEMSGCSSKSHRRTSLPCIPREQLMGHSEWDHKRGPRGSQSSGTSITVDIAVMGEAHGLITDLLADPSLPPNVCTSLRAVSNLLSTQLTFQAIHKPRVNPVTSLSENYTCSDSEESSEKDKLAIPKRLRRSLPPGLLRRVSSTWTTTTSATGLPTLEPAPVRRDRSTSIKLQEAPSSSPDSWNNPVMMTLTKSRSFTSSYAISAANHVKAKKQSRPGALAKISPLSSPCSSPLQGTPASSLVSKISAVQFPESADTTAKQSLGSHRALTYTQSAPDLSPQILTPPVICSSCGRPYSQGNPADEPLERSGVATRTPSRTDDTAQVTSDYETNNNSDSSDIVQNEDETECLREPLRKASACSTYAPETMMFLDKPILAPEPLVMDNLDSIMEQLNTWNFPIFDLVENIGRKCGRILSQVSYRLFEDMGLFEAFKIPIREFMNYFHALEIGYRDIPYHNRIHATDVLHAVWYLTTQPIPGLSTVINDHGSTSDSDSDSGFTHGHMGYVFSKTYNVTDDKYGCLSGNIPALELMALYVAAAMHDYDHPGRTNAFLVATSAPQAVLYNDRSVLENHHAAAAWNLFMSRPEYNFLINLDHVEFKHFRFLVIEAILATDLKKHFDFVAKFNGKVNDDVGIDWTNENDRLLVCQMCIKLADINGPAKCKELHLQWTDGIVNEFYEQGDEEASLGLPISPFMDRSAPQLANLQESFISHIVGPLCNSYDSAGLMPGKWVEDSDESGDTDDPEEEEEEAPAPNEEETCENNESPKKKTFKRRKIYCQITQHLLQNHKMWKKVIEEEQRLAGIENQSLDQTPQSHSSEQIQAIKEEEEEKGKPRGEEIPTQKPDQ
Dual specificity calcium/calmodulin-dependent 3',5'-cyclic nucleotide phosphodiesterase 1A, sequence (P54750 whole entry): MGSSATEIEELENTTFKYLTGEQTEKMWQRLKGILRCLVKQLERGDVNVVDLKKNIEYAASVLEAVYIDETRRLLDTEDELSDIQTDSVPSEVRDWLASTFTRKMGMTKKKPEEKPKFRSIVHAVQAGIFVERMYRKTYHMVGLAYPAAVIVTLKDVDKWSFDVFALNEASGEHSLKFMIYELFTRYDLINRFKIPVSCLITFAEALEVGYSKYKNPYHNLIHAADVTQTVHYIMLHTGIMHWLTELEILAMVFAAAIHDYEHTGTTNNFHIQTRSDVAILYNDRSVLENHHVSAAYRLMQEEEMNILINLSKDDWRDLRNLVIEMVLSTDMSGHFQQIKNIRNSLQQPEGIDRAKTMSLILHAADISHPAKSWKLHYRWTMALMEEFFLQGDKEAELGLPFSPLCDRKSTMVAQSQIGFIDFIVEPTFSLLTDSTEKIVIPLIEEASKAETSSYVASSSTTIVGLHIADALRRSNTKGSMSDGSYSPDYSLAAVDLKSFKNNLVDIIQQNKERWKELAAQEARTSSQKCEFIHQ

On to `CCCCn1c(=O)c2nnc(C3(C4CC4)CC3)n2c2ncc(CO)cc21`, for which the half-maximal inhibitory concentration (IC50) in experiment [1] was 3850 nM; in experiment [2], > 100000 nM; in experiment [3], 0.996 nM.

As for `CCCCn1c(=O)c2nnc(C3(C4CC4)CC3)n2c2ncc(CC)cc21`, the IC50 is 982 nM in experiment [1], > 100000 nM in experiment [2] and 0.214 nM in experiment [3].

A word on the IC50: it is the midpoint of a concentration-inhibition curve.
